According to US20080312271A1, “AZABENZIMIDAZOLYL COMPOUNDS” (Pfizer Inc., priority 2006, published 2008):

Molecular target: T1, mGluR2 receptor (metabotropic glutamate receptor 2) (Homo sapiens, UniProt Q14416)
T1 construct: expressed in transfected cells
Assay: mGluR2 Potentiator Screen, FLIPR, EC10-EC20 glutamate challenge
Type: cell-based
Conditions: not given
Protocol: Procedure for mGluR2 Potentiator Screen NLB methods EC10-EC20 Challenge Cell Culture and Plating:
Cells used for this screen are HEK cells stably transfected with the mGluR2 receptor (metabotropic glutamate receptor 2) and the Gα15 G protein. Clones were identified by functional activity (FLIPR). Cells are grown in growth media containing: DMEM High Glucose with Glutamine and Na Pyruvate (GIBCO), 10% (v/v) Heat inactivate FBS (GIBCO), G418 500 ug/ml (from 50 mg/ml stock) (GIBCO) and Blasticidin 3 ug/ml (from 5 mg/ml stock made in H2O) (Invitrogen).
2 days before the assay cell are trypsinized with 0.25% trysin/EDTA (GIBCO), spun down at 1000 rpm for 5 minutes, resuspended in growth media and plated on polystyrene 384 well black wall 1 clear bottom poly-D-lysine coated plates at a density of approximately 18,000 cells/well in a volume of 50 μL per well. One day before the assay the growth media is removed from the plates by flicking, and replaced with media containing DMEM High Glucose without Glutamine and Na Pyruvate (GIBCO) and 10% (v/v) dialyzed FBS (GIBCO). The reason for the removal of glutamine the day before the assay is to minimize the amount of glutamate that will be present during the assay, as endogenous glutarnate released from the cells can reduce the fluorescent response and interfere with the FLIPR screen.
FLIPR Methods and Data Analysis:
On the day of the assay, the FLIPR assay is performed using the following methods.
The pH is adjusted to 7.4 with 1 M NaOH. Prepare a 2 mM (approx.) stock solution of Fluo-4,am (Molecular Probes) dye in DMSO-22 μl DMSO per 50 ug vial (440 μL per 1 mg vial). Make a 1 mM (approx.) flou-4, PA working solution per vial by adding 22 μl of 20% pluronic acid (PA), (Molecular Probes) in DMSO to each 50 ug vial (440 μL per 1 mg vial). Prepare a 250 mM Probenecid (Sigma) stock solution by dissolving 0.71 g into 5 ml 1N NaOH and 5 ml assay buffer (for each liter of assay wash buffer)L Make 4 uM (approx.) dye incubation media by adding […] per 11 ml DMEM high glucose without glutamine (220 ml per 1 mg vial). Add 110 μL probenecid stock per 11 ml (2.5 mM final [concentration]). To the dye media add 3 units/ml of glutamic-pyruvic transaminase (GPT, Sigma) and 3 mM Na Pyruvate. The assay has worked with dye concentrations from 2 uM to 8 uM dye as well. To the assay buffer from drug preparation, add 1.83 mls DMSO and 400 μL 15.8% P104 (from New Leads biology) per liter for final concentrations of 0.18% DMSO and 0.006% P104. To the assay buffer for cell washing, add probenecid in the same manner and concentration that was used for the dye media.
Remove growth media from cell plates by flicking. Add 50 μl/well dye solution. Incubate 1 hour at 37° C. and 5% CO2. Remove dye solution and wash 3 times with assay buffer+probenecid (100 μl probenecid stock per 10 ml buffer), leaving 30 μL/well assay buffer. Wait at least 10-15 minutes. Compounds and agonist challenge additions are performed with the FLIPR. The 1st addition is for test compounds, which are added as 15 μL of 4×[concentration] of potentiator. The second 2nd addition is 15 μL of 4×[concentration] of agonist or challenge. This achieves 1× concentration of all compounds only after 2nd addition. The 1st and 2nd additions are performed separately using the FLIPR, which give 2 different data files. Compounds are pretreated at least 30 minutes before agonist addition,
Results are analyzed by dividing the peak fluorescent value of the FLIPR response by the […] to achieve a ratio response. The ratios are then analyzed by curve fitting programs. […] Maximum values for dose response curves (forced fitting) are derived from standards on the plate.
Compound Preparation and Glutamate Challenge:
Compounds are delivered as 10 mM DMSO stocks or as powders, Powders are solubilized in DMSO at 10 mM (as solubility allows). Compounds are sonicated in a heated water bath (35-40° C.) for at least 20 minutes.

T1 sequence (Q14416 19-872, species assumed): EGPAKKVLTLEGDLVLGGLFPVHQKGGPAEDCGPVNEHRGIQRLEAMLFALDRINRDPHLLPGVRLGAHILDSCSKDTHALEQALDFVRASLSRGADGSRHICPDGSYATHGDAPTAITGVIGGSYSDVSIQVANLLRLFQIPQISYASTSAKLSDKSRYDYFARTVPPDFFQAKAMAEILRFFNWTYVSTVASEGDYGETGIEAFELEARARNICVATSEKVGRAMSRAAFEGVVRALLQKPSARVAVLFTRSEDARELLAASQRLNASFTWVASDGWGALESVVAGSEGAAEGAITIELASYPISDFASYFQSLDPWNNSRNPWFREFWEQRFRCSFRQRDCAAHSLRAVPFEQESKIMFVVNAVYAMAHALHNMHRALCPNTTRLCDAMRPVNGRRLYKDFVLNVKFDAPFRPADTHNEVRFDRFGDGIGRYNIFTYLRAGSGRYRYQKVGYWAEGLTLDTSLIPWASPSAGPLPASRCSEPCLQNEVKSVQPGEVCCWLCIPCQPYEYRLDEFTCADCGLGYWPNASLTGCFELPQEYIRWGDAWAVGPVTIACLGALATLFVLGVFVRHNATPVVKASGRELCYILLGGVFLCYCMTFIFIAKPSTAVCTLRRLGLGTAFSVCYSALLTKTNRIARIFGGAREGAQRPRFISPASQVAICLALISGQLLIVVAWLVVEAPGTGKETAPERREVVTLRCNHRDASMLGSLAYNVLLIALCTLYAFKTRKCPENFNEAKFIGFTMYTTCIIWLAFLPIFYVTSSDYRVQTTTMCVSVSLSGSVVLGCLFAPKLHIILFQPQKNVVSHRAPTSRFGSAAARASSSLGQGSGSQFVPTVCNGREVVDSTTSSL

| SMILES | EC50 [nM] |
| --- | --- |
| COc1ccccc1C1CCN(Cc2nc3ncccc3n2C)CC1 [compound 51] | 1540 |
| C[C@@H]1CN(Cc2nc3nccc4c3n2CCC4)CC[C@@H]1c1ccc(Cl)cc1F (relative stereo) [Example 129, 2-{[Cis-4-(4-chloro-2-fluorophenyl)-3-methylpiperidin-1-yl]methyl}-5,6-dihydro-4H-imidazo[4,5,1-ij]-1,7-naphthyridine] | 12.5 |
| CC(C)Oc1ccc([C@H]2CCN(Cc3nc4ncccc4n3C)C[C@H]2C)c(F)c1 (single isomer, unassigned) [compound 217] | 29.8 |
| Cn1c(CN2CCC(F)(c3ccc(C(F)(F)F)cc3)CC2)nc2ncccc21 [compound 99] | 434 |
| C[C@@H]1CN(Cc2nc3ncccc3n2C)CC[C@@H]1c1ccc(C(F)(F)F)c(F)c1 (relative stereo) [compound 147] | 41.3 |
| Cn1c(CN2CCC(c3ccc(Cl)c(F)c3)CC2)nc2ncccc21 [compound 106] | 190 |
| Cn1c(CN2CCC(c3cc(Cl)ccc3F)CC2)nc2ncccc21 [compound 75] | 324 |
| COc1cc(C(F)(F)F)ccc1C1CCN(Cc2nc3ncccc3n2C)CC1 [compound 64] | 11.1 |
| Cn1c(CN2CCC(c3ccc(F)cc3)CC2)nc2ncccc21 [compound 67] | 2360 |
| C[C@@H]1CN(Cc2nc3ncccc3n2C)CC[C@@H]1c1ccc(C(F)(F)F)cc1 (single isomer, unassigned) [compound 119] | > 1990 |
| Cc1ccccc1C1CCN(Cc2nc3ncccc3n2C)CC1 [compound 89] | 823 |
| CC(C)Oc1ccc([C@H]2CCN(Cc3nc4cnccc4n3C)C[C@H]2C)cc1Cl (relative stereo) [compound 193] | 590 |
| C[C@@H]1CN(Cc2nc3ncccc3n2C)CC[C@@H]1c1ccc(OC(F)(F)F)c(Cl)c1 (relative stereo) [compound 213] | 253 |
| Cn1c(CN2CCC(c3ccccc3C#N)CC2)nc2ncccc21 [compound 77] | > 5700 |
| CCOc1ccc(Cl)cc1C1CCN(Cc2nc3ncccc3n2C)CC1 [compound 41] | 4810 |
| COc1ccccc1C1CCN(Cc2nc3ncccc3n2C)CC1C (stereo not drawn) [compound 60] | 302 |
| Cn1c(CN2CCC(c3cccc(Cl)c3)CC2)nc2ncccc21 [compound 78] | 880 |
| Cn1c(CN2CCC(c3ccc(Cl)c(F)c3)CC2)nc2cccnc21 [compound 109] | 378 |
| C[C@H]1CN(Cc2nc3ncccc3n2C)CC[C@H]1c1ccc(Cl)cc1F [compound 123] | > 1810 |
| C[C@@H]1CN(Cc2nc3ncccc3n2C)CC[C@@H]1c1ccc(OC(F)(F)F)cc1 (relative stereo) [compound 157] | 277 |
| COc1cc(F)ccc1[C@H]1CCN(Cc2nc3nccc4c3n2CCC4)C[C@H]1C (relative stereo) [Example 134, 2-{[Cis-4-(4-fluoro-2-methoxyphenyl)-3-methylpiperidin-1-yl]methyl}-5,6-dihydro-4H-imidazo[4,5,1-ij]-1,7-naphthyridine] | 30.2 |
| Cn1c(CN2CCC(c3ccc(Cl)cc3F)CC2)nc2cnccc21 [compound 113] | 81 |
| Cc1cc(OC(F)(F)F)ccc1[C@H]1CCN(Cc2nc3ncccc3n2C)C[C@H]1C (relative stereo) [compound 164] | < 74.3 |

The next lines start with the values.

| EC50 [nM] | SMILES |
| --- | --- |
| > 172 | CC(C)Oc1ccc([C@H]2CCN(Cc3nc4cnccc4n3C)C[C@H]2C)c(F)c1 (relative stereo) [compound 167] |
| 284 | CC(C)Oc1ccc([C@H]2CCN(Cc3nc4cnccc4n3C)C[C@H]2C)c(Cl)c1 (relative stereo) [compound 170] |
| < 18 | C[C@@H]1CN(Cc2nc3ncccc3n2C)CC[C@@H]1c1ccc(C(F)(F)F)cc1Cl (single isomer, unassigned) [compound 162] |
| > 1690 | COc1ccc([C@H]2CCN(Cc3nc4cnccc4n3C)C[C@H]2C)c(C(F)(F)F)c1 (relative stereo) [compound 174] |
| 42.8 | COc1cc(C(F)(F)F)ccc1[C@H]1CCN(Cc2nc3ncccc3n2C)C[C@H]1C (relative stereo) [compound 114] |
| 24.8 | C[C@@H]1CN(Cc2nc3ncccc3n2C)CC[C@@H]1c1ccc(C(F)(F)F)cc1C(F)(F)F (relative stereo) [compound 149] |
| 28.3 | C[C@@H]1CN(Cc2nc3ncccc3n2C)CC[C@@H]1c1ccc(F)cc1C(F)(F)F (relative stereo) [compound 204] |
| 56 | C[C@@H]1CN(Cc2nc3cnccc3n2C)CC[C@@H]1c1ccc(OC(F)(F)F)cc1F (single isomer, unassigned) [compound 196] |
| > 314 | COc1cc(C(F)(F)F)ccc1[C@H]1CCN(Cc2nc3cnccc3n2C)C[C@H]1C (single isomer, unassigned) [compound 142] |
| 207 | C[C@@H]1CN(Cc2nc3cnccc3n2C)CC[C@@H]1c1ccc(C(F)(F)F)cc1C(F)(F)F (relative stereo) [compound 150] |
| 262 | C[C@@H]1CN(Cc2nc3cnccc3n2C)CC[C@@H]1c1ccc(OC(F)(F)F)cc1 (relative stereo) [compound 158] |
| 110 | C[C@@H]1CN(Cc2nc3cnccc3n2C)CC[C@@H]1c1ccc(Cl)cc1C(F)(F)F (relative stereo) [compound 208] |
| > 1190 | CC(C)Oc1ccc([C@H]2CCN(Cc3nc4cnccc4n3C)C[C@H]2C)c(F)c1 (single isomer, unassigned) [compound 220] |
| 787 | COc1cc(C(F)(F)F)ccc1[C@H]1CCN(Cc2nc3ncccc3n2C)C[C@H]1C (single isomer, unassigned) [compound 130] |

Same assay, conditions: HEK cells stably transfected with mGluR2 and Gα15; FLIPR (Fluo-4); potentiation of an EC10 to EC20 concentration of glutamate; Table 9

| EC50 [nM] | SMILES |
| --- | --- |
| 12.5 | C[C@@H]1CN(Cc2nc3nccc4c3n2CCC4)CC[C@@H]1c1ccc(Cl)cc1F (relative stereo) [Example 129, 2-{[Cis-4-(4-chloro-2-fluorophenyl)-3-methylpiperidin-1-yl]methyl}-5,6-dihydro-4H-imidazo[4,5,1-ij]-1,7-naphthyridine] |
| 30.2 | COc1cc(F)ccc1[C@H]1CCN(Cc2nc3nccc4c3n2CCC4)C[C@H]1C (relative stereo) [Example 134, 2-{[Cis-4-(4-fluoro-2-methoxyphenyl)-3-methylpiperidin-1-yl]methyl}-5,6-dihydro-4H-imidazo[4,5,1-ij]-1,7-naphthyridine] |

Same assay, conditions: mGluR2 potentiator screen, FLIPR, EC10-EC20 glutamate challenge

| SMILES | EC50 [nM] |
| --- | --- |
| C[C@@H]1CN(Cc2nc3ncccc3n2C)CC[C@@H]1c1ccc(OC(F)(F)F)cc1Cl (single isomer, unassigned) [compound 256] | > 704 |
| Cc1cc(OC(F)(F)F)ccc1C1CCN(Cc2nc3ncccc3n2C)CC1 [compound 241] | 50.7 |
| C[C@@H]1CN(Cc2nc3ncccc3n2C)CC[C@@H]1c1ccc(OC(F)F)cc1F (relative stereo) [compound 257] | 67.7 |
| C[C@@H]1CN(Cc2nc3ncccc3n2C)CC[C@@H]1c1ccc(C(F)(F)F)c(Cl)c1 (relative stereo) [compound 234] | 101 |
| CC(C)Oc1ccc(C2CCN(Cc3nc4ncccc4n3C)CC2)c(Cl)c1 [compound 269] | 65.7 |
| Cn1c(CN2CCC(c3ccc(OC(F)F)cc3Cl)CC2)nc2cnccc21 [compound 265] | 164 |
| C[C@@H]1CN(Cc2nc3ncccc3n2C)CC[C@@H]1c1ccc(F)c(F)c1F (relative stereo) [compound 249] | 113 |

Further lines, results first:

| EC50 [nM] | SMILES |
| --- | --- |
| 125 | C[C@@H]1CN(Cc2nc3cnccc3n2C)CC[C@@H]1c1ccc(F)cc1C(F)(F)F (relative stereo) [compound 258] |
| 96.5 | C[C@@H]1CN(Cc2nc3cnccc3n2C)CC[C@@H]1c1ccc(F)cc1OC(F)F (relative stereo) [compound 275] |
| 1820 | C[C@@H]1CN(Cc2nc3cnccc3n2C)CC[C@@H]1c1ccc(OC(F)(F)F)cc1Cl (single isomer, unassigned) [compound 253] |
| 85.8 | Cc1cc(C(F)(F)F)ccc1C1CCN(Cc2nc3cnccc3n2C)CC1 [compound 242] |
| 85 | Cn1c(CN2CCC(c3ccc(C(F)(F)F)cc3Cl)CC2)nc2cnccc21 [compound 273] |
